From the NIST ThermoML archive (doi:10.1007/s10765-012-1370-2)

Assay: xn = mol fraction of the nth substance listed
Conditions: Liquid, Bellows volumetry

CCC [propane] + O=C=O
mass density [kg/m3]
Conditions | x2 = 0.1744 | x2 = 0.3863 | x2 = 0.5837 | x2 = 0.7732
400 K, 100000 kPa | – | – | 701.68 | 785.16
400 K, 120000 kPa | 601.92 | 658.95 | 728.37 | 818.25
400 K, 140000 kPa | 617.62 | 677.58 | 750.66 | 845.81
400 K, 160000 kPa | 631.49 | 693.82 | 770.18 | 869.72
400 K, 180000 kPa | 643.58 | 708.41 | 787.61 | 890.88
400 K, 200000 kPa | 654.96 | 721.61 | 803.17 | 909.94
440 K, 30000 kPa | – | 425.58 | – | –
440 K, 40000 kPa | 453.4 | 475.39 | 498.14 | 524.14
440 K, 50000 kPa | 480.3 | 510.05 | 543.19 | 582.81
440 K, 60000 kPa | 501.53 | 536.68 | 577.1 | 626.71
440 K, 70000 kPa | 518.95 | 558.53 | 604.68 | 661.78
440 K, 80000 kPa | 533.91 | 576.94 | 627.72 | 690.97
440 K, 90000 kPa | 546.96 | 592.95 | 647.49 | 715.85
440 K, 100000 kPa | 558.7 | 607.11 | 664.74 | 737.47
440 K, 120000 kPa | 578.72 | 631.24 | 694.36 | 774.63
440 K, 140000 kPa | 595.88 | 651.66 | 719.21 | 805.33
440 K, 160000 kPa | 610.94 | 669.67 | 740.68 | 831.52
440 K, 180000 kPa | 624.2 | 685.33 | 759.39 | 854.41
440 K, 200000 kPa | 636.19 | 699.19 | 776.34 | 875.02
